Measurements from the METLIN SMRT retention time set (Domingo-Almenara et al. 2019).

Test: gradient 5% acetonitrile 3 min, to 50% in 2 min, to 85% in 15 min, held 3 min, 100 µL/min
Conditions: column: Zorbax Extend-C18 2.1 x 50 mm; eluents: water / acetonitrile, 0.1% formic acid
Procedure, shortened: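 The mobile phases were water and acetonitrile, each with 0.1% formic acid, pumped at 100 μL/min through a Zorbax Extend-C18 column (2.1 × 50 mm, 1.8 μm). Pure standards were injected as mixtures of ~100 molecules and detected by a quadrupole time-of-flight mass spectrometer in positive and negative ionization mode. Retention time came from computationally picked adduct peaks, each inspected by hand.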

Row | RP-LC retention time [s] | Compound
1 | 794 | O=C(NCc1ccccc1F)c1ccc2c(c1)Sc1ncccc1C(=O)N2C1CC1
2 | 869 | CC(C)n1cc(S(=O)(=O)Nc2ccc(F)cc2)c2cccnc21
3 | 906 | Cc1ccc(CN2C(=O)CN(S(C)(=O)=O)CC2(C)C(=O)NCc2ccc(Cl)cc2)cc1 (centres undefined)
4 | 777 | CCC(C(=O)NCc1ccco1)n1c2ccccc2c2cnn(C)c(=O)c21 (centres undefined)
5 | 841 | O=C(NCC1CCCO1)c1cc(-c2cccs2)nc2ccccc12 (centres undefined)
6 | 732 | Cc1cc2c(=O)n(CC(=O)NCc3ccccc3F)ccc2s1
7 | 762 | COc1ccc(C(=O)N2c3ccccc3NC3=C(C(=O)CCC3)C2c2ccco2)cc1 (centres undefined)
8 | 615 | COc1ccc(C(=O)Nc2ccc3c(c2)N(C(=O)C2CCCO2)CC3)c(OC)c1OC (centres undefined)
9 | 606 | CC(C)c1cc(N2CCN(C(=O)c3ccc(N(C)C)cc3)CC2)nc2nncn12
10 | 738 | CCN1C(=O)c2cccnc2Sc2cc(NC(=O)c3ccn(CC)n3)ccc21
11 | 626 | COc1ccc(OC)c(NC(=O)N2CCC(CN3CCC(C)CC3)CC2)c1
12 | 776 | Cc1ccc(C(=O)N2CCC3(CC2)NC(=O)c2cc(F)ccc2N3C)cc1
13 | 1210 | O=S(=O)(c1ccc(-c2noc(-c3ccc(F)c(F)c3)n2)cc1)N1CCCC1
14 | 894 | Cc1cccc(N2CCN(C(=O)c3ccnc(N4CCCC4)n3)CC2)c1
15 | 750 | O=C(c1c[nH]c2ccccc12)N1CCC2(CC1)NC(=O)N(Cc1ccccc1)C2=O
16 | 1070 | Cc1c(-c2nsc(Nc3ccccc3)n2)nnn1-c1cccc(Cl)c1
17 | 695 | COc1cccc(C2c3c(oc4cc(C)c(C)cc4c3=O)C(=O)N2CCCN2CCOCC2)c1 (centres undefined)
18 | 575 | CCc1cc(N2CCN(C(=O)c3ccc4c(c3)OCO4)CC2)nc2nncn12
19 | 595 | O=C1CC(NC(=O)Nc2ccccc2C(F)(F)F)CN1 (centres undefined)
20 | 554 | CS(=O)(=O)N1CCC(C(=O)Nc2nnc(SCc3ccccn3)s2)CC1
21 | 1080 | O=c1c2ccccc2c(-c2nc(-c3ccncc3)no2)cn1-c1ccc(F)cc1
22 | 769 | Cc1ccc(C)c(NC(=O)N2CCC3(CC2)NC(=O)c2ccc(F)cc2N3C)c1

Row | RP-LC retention time [s] | Compound
23 | 593 | CCn1ccnc1N1CCN(C(=O)COc2ccc(Cl)cc2Cl)CC1
24 | 792 | CSc1ccc(CNC(=O)CC2CCN(C(=O)c3[nH]c(C)cc3C)CC2)cc1
25 | 758 | CC1CCCN(C(=O)C2CC(=O)N(c3ccc4c(c3)CCN4C(=O)C3CC3)C2)C1 (centres undefined)
26 | 634 | O=C(CN1C(=O)C(C(=O)N2CCCCC2)Sc2ccccc21)N1CCN(c2ccccn2)CC1 (centres undefined)
27 | 677 | CCn1nccc1C(=O)N1C[C@@H]2C[C@H](NS(=O)(=O)c3ccccc3)[C@H]1C2
28 | 873 | Cc1cc(NC(=O)CN2C(=O)NC(c3ccc(Cl)cc3)C3=C2COC3=O)ccc1Br (centres undefined)
29 | 807 | CCCCNc1nc(-c2ccc(OC)cc2)nc2ccccc12
30 | 1010 | CCc1noc(-c2nc(-c3ccccc3F)no2)n1
31 | 700 | O=C(N[C@H]1C[C@@H]2C[C@H]1CN2C(=O)c1ccc2c(c1)OCO2)c1ccccc1
32 | 911 | COc1cccc(-c2noc(Cn3c(=O)n(Cc4ccccc4)c(=O)c4sccc43)n2)c1
33 | 927 | Cc1oc(C(=O)O)cc1COc1ccc2c(oc(=O)c3ccccc32)c1C
34 | 1210 | CCn1nccc1-c1cccc(-c2noc(-c3ccc(OC)cc3)n2)c1
35 | 573 | COc1ccc(NC(=O)N2CCC(N3C[C@H]4C[C@H](C3)[C@H]3CCCC(=O)N3C4)CC2)cc1
36 | 775 | CN(Cc1cccn1C)C(=O)NC1CCCC1
37 | 658 | CCn1cnc2cc(-c3noc(CNC(=O)Cc4ccc(Cl)cc4)n3)ccc21
38 | 1260 | O=C(Nc1cc(F)ccc1F)c1c(O)c2cccnc2n(-c2cccc(F)c2)c1=O
39 | 816 | CCCNC(=O)c1cc2sccc2n1C
40 | 802 | Cc1[nH]c(C(=O)N2CCC(CC(=O)NCc3ccccc3)CC2)c(C)c1C(=O)OC(C)C
41 | 656 | Cc1noc(C2CCCCN2Cc2nc(-c3cccnc3)no2)n1 (centres undefined)
42 | 790 | CCc1nnc(-c2cn(CC(=O)NC3CCCCCC3)c3ccccc23)o1
43 | 942 | CCOC(=O)c1sc(NC(=O)C2CC2)nc1-c1ccccc1
44 | 933 | N#Cc1ccc(NC(=O)Cn2cccc(-c3nc(-c4ccc(Cl)cc4)no3)c2=O)cc1

Row | RP-LC retention time [s] | Compound
45 | 688 | Cc1c(C(=O)NCCCN2CCOCC2)oc2ccc3c(c12)C(O)CC1(CCCCC1)O3 (centres undefined)
46 | 792 | Cc1cc(NC(=O)c2cc3c(=O)n4cccc(C)c4nc3s2)no1
47 | 793 | COc1ccc(OC)c(S(=O)(=O)N2CCCN(S(=O)(=O)c3ccccc3)CCC(=O)NCC2)c1
48 | 722 | COCCNc1c(-c2ccccc2)nc2sc(C(=O)N3CCOCC3)c(C)n12
49 | 877 | CN1c2cc(C(=O)N3CCN(c4ccccc4F)CC3)ccc2C(=O)N2CCCCC21 (centres undefined)
50 | 812 | O=C(O)c1cccc2c1CCN2S(=O)(=O)c1ccccc1F
51 | 1020 | Cc1ccc(C)c(NC(=O)C2CCN(S(=O)(=O)c3cc(-c4noc(C5CC5)n4)cs3)CC2)c1
52 | 563 | CCN(CC)C(=O)Cn1c(CO)nc2ccccc21
53 | 773 | COCc1nc(-c2ccc(OC3CN(C(=O)NC(C)C)C3)cc2)no1
54 | 739 | Cn1cnc2ccc(-c3noc(-c4ccc(F)cc4)n3)cc21
55 | 686 | c1ccc(-c2cc(N3CCOCC3)n[nH]2)cc1
56 | 1010 | Cc1cc(C)n(-c2ccc(C(=O)NC3CCC(C)CC3)cn2)n1 (centres undefined)
57 | 894 | CCN1CCCn2cc(S(=O)(=O)N3CCN(c4cccc(Cl)c4)CC3)cc2C1=O
58 | 678 | CC(C)NC(=O)N1CCC[C@H]1c1nc(-c2ccc(F)cc2)n[nH]1
59 | 642 | CS(=O)(=O)N1CCC(C(=O)N2CCCC(c3nnc(-c4cccs4)o3)C2)CC1 (centres undefined)
60 | 802 | CC(C)C(=O)Nc1cccn2nc(C3CCC3)nc12
61 | 1140 | Cc1cccc(N2CCN(S(=O)(=O)c3ccc(-c4nnc(C5CCC5)o4)o3)CC2)c1
62 | 890 | CCCn1cc(S(=O)(=O)CC(=O)Nc2ccc(C(=O)OCC)cc2)c2ccccc21
63 | 963 | COc1ccc(Cc2nc(-c3cccc(-c4ccn[nH]4)c3)no2)cc1Cl
64 | 779 | Cc1cc(C)n2nc(CN(C(=O)c3cccs3)c3ccc(F)cc3)nc2n1
65 | 935 | Cc1ccc(Cn2c(=O)c(N3CCN(C(=O)NCC4CCCO4)CC3)nc3cccnc32)cc1 (centres undefined)
66 | 653 | O=C(c1ccco1)N1CCC(F)(C(=O)N2CCCC2)CC1

Row | RP-LC retention time [s] | Compound
67 | 726 | CCOc1ccc(CC(=O)N2CC(C(=O)NC)C3(CCCC3)C2)cc1OCC (centres undefined)
68 | 594 | NC(=O)c1cc[nH]c1C1CCCN(Cc2ccc(Br)o2)C1 (centres undefined)
69 | 579 | Cc1cc(N2CCCC2)nc(N2CCN(C(=O)c3ccccc3Br)CC2)n1
70 | 896 | CCCc1noc(-c2ccnc(-n3ncc(C(=O)N4CCCC4)c3C)c2)n1
71 | 960 | Cn1cc(S(=O)(=O)N2CCCC2)cc1C(=O)N1CCC(Cc2ccccc2)CC1
72 | 978 | CCn1c(=O)sc2cc(S(=O)(=O)N3CCC(C(=O)NCc4ccc(OC)cc4)CC3)ccc21
73 | 926 | O=C(Cc1ccc(F)cc1)Nc1cc(-c2cccs2)no1
74 | 868 | CC(=O)Oc1ccccc1C(=O)N1CCCc2ccccc21
75 | 727 | CC(=O)N1CCc2sc(S(=O)(=O)NCc3ccc4c(c3)OCO4)cc2C1
76 | 687 | O=C(CSc1ccc(N2CCCC(C(=O)NC3CC3)C2)nn1)Nc1cccc(C(F)(F)F)c1 (centres undefined)
77 | 619 | Cc1ccc(CS(=O)(=O)N[C@@H]2CN(c3ncccn3)C[C@H]2CN(C)C)cc1
78 | 866 | Cc1nnc2ccc(S(=O)(=O)N(Cc3ccccc3)c3cccc(F)c3)cn12
79 | 1280 | O=C(NCc1ccco1)c1c(O)c2cccnc2n(-c2ccc(F)cc2)c1=O
80 | 777 | Cc1ccc2[nH]cc(CCN3CC(C(=O)Nc4ccc5c(c4)OCCO5)CC3=O)c2c1 (centres undefined)
81 | 798 | CC(C)N1C(=O)c2cccnc2Sc2cc(NC(=O)C3CCC3)ccc21
82 | 709 | CCc1ccc(NC(=O)Cn2nc3n(c2=O)CCCCC3)cc1
83 | 1060 | Brc1ccc(OCc2nnc3sc(CCc4ccccc4)nn23)cc1
84 | 856 | COc1nc2ccccc2nc1N1CCCC(C(=O)N2CCCC2)C1 (centres undefined)
85 | 742 | O=C(Cn1nc(N2CCOCC2)c2ccccc2c1=O)Nc1ccccc1
86 | 599 | CN(C)c1ccc(CNC(=O)CCc2c(-c3ccc(Br)cc3)nc3ccccn23)cc1
87 | 672 | CSc1nnc(NC(=O)c2ccccc2[N+](=O)[O-])s1
88 | 646 | Cc1ccc(S(=O)(=O)Nc2ccc(-c3cn4ccc(C)nc4n3)cc2)cc1

Row | Compound | RP-LC retention time [s]
89 | CCOc1ccccc1C(=O)N1CCC2(CC1)NCc1ccccc1-n1ccnc12 | 572
